Source: patent US10195185B2, “3-(1H-imidazo[4,5-C]pyridin-2-yl)-1H-pyrazolo[4,3-B]pyridines and therapeutic uses thereof” (Samumed, LLC, priority 2015, dated 2019)

Legend:
Format in all cases: cell-based
[1] = test system: Wnt activity (Wnt-responsive human Sp5 promoter, TCF/LEF binding sites) in SW480 colon carcinoma cells; assay: Wnt activity screening assay: Sp5-Luc luciferase reporter gene in SW480 cells; conditions: for EC50: 10-point dose-response from 10 μM, incubated overnight; for inhibition at 10 µM: given for EC50 of >10 μM, read-out: percent inhibition at 10 μM
Summary of the method: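 Luminescence (BrightGlo) was normalised to DMSO-only wells and fitted with a four-parameter variable-slope model for EC50; beyond 10 μM, % inhibition at 10 μM is given. Stable Sp5-Luc SW480 reporter cells, 4,000/well in 1% FBS, were exposed overnight at 37 °C to compounds, top 10 μM, 1:3 dilutions, 0.1% DMSO.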

[2] = test system: SW480 colon cancer cells; assay: Cell viability assay (CellTiter-Blue), four days; conditions: Homo sapiens, 96 h; for inhibition at 10 µM: read-out: percent inhibition at 10 μM (given for EC50 of >10 μM); for EC50: CellTiter-Blue cell viability
Summary of the method: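 4-day exposure, 37 °C/5% CO2; ~2×10^3 SW480 cells/well; 8-pt 1:3 curve, 10–0.0045 μM, duplicates vs DMSO controls. Resazurin→resorufin fluorescence readout, ~3 h. EC50 by nonlinear fit; if >10 μM, % inhibition at 10 μM reported.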

[3] = test system: primary human mesenchymal stem cells (hMSCs); assay: Induction of chondrogenesis in hMSCs (nodule area, Rhodamine B / Nile Red); conditions: TGF-β3 as positive control; for Emax: read-out: Max. Activity as % TGF-β3 activity; for EC50: concentration required to induce 50% levels of chondrogenesis, read-out: Conc (nM) of 50% TGF-β3 activity
Protocol: Representative compounds were screened using primary human mesenchymal stem cells (hMSCs) to determine their ability to induce chondrogenesis (process by which cartilage is developed).
Primary human mesenchymal stem cells (hMSCs) were purchased from Lonza (Walkersville, Md.) and expanded in Mesenchymal Stem Cell Growth Media (Lonza). Cells between passage 3 and 6 were used for the experiments.
Each compound was dissolved in DMSO as a 10 mM stock and used to prepare compound source plates. For the 96 well assay, serial dilution (1:3, 6-point dose-response curves from 2700 nM to 10 nM) and compound transfer was performed using the ECHO 550 (Labcyte, Sunnyvale, Calif.) into 96-well clear bottom assay plates (Greiner Bio-One) with appropriate DMSO backfill for a final DMSO concentration of 0.03%. hMSCs were plated at 20,000 cells/well in 250 μL/well Incomplete Chondrogenic Induction Medium (Lonza; DMEM, dexamethasone, ascorbate, insulin-transferrin-selenium [ITS supplement], gentamycin-amphotericin [GA-1000], sodium pyruvate, proline and L-glutamine). TGF-β3 (10 ng/mL) was used as a positive control for differentiation while negative control wells were treated with 75 nL DMSO for normalization and calculating EC50 values. For the 384 well assay, serial dilution (1:3, 8-point dose-response curves from 5000 nM to 2.2 nM) and compound transfer was performed using the ECHO 550 (Labcyte, Sunnyvale, Calif.) into 384-well clear bottom assay plates (Greiner Bio-One) with appropriate DMSO backfill for a final DMSO concentration of 0.03%. hMSCs were plated at 8,000 cells/well in 80 μL/well Incomplete Chondrogenic Induction Medium (Lonza; DMEM, dexamethasone, ascorbate, insulin-transferrin-selenium [ITS supplement], gentamycin-amphotericin [GA-1000], sodium pyruvate, proline and L-glutamine). TGF-β3 (10 ng/mL) was used as a positive control for differentiation while negative control wells were treated with 25 nL DMSO for normalization and calculating EC50 values. Cells were incubated at 37° C. and 5% CO2 for 6 days. To image chondrogenic nodules, the cells were fixed using 4% formaldehyde (Electron Microscopy Sciences), and stained with 2 μg/mL Rhodamine B (Sigma-Aldrich) and 20 μM Nile Red (Sigma-Aldrich) [Johnson K., et. al, A Stem Cell-Based Approach to Cartilage Repair, Science, (2012), 336(6082), 717-721]. The nodules imaged (25 images per well for 96 well plates and 9 images per well for 384 well plates at 10× magnification) by excitation at 531 nm and emission at 625 nm and quantified using the CellInsight CX5 (Thermo Scientific). Area of nodules in each well was normalized to the average of 3 DMSO treated wells on the same plate using Excel (Microsoft Inc.). The normalized averages (fold change over DMSO) of 2 or 3 replicate wells for each compound concentration were calculated. Due to solubility limitations of some of the compounds, curve fitting was incomplete leading to inaccurate EC50 determinations.
Using TGF-β3 as a positive control, the concentration of representative compounds required to induce 50% levels of chondrogenesis is reported. In addition, the maximum activity of each compound and the respective dose that each compound reached maximum chondrogenesis activity is reported.

| SMILES | EC50 [1] [µM] | EC50 [2] [µM] | EC50 [3] [nM] | inhibition at 10 µM [1] [%] | inhibition at 10 µM [2] [%] | Emax [3] [%] |
| --- | --- | --- | --- | --- | --- | --- |
| COc1cccc(-c2nccc3[nH]c(-c4n[nH]c5ccc(-c6cncc(NC(=O)Cc7ccccc7)c6)nc45)nc23)c1 [Compound 1000, N-(5-(3-(4-(3-methoxyphenyl)-1H-imidazo[4,5-c]pyridin-2-yl)-1H-pyrazolo [4,3-b]pyridin-5-yl)pyridin-3-yl)-2-phenylacetamide] | > 10 | > 10 | – | 31.1 | 25.5 | 41 |
| CC(C)(C)CC(=O)Nc1cncc(-c2ccc3[nH]nc(-c4nc5cnccc5[nH]4)c3n2)c1 [Compound 268, N-(5-(3-(1H-Imidazo[4,5-c]pyridin-2-yl)-1H-pyrazolo[4,3-b]pyridin-5-yl)pyridin-3-yl)-3,3-dimethylbutanamide] | > 10 | > 10 | 10 | 9.5 | 0 | 54 |
| CN(C)Cc1cncc(-c2ccc3[nH]nc(-c4nc5c(N6CCCCC6)nccc5[nH]4)c3n2)c1 [Compound 181, N,N-Dimethyl-1-(5-(3-(4-(piperidin-1-yl)-1H-imidazo[4,5-c]pyridin-2-yl)-1H-pyrazolo [4,3-b]pyridin-5-yl)pyridin-3-yl)methanamine] | > 10 | 4.69 | – | 8.4 | – | 43 |
| Cc1cn(-c2nccc3[nH]c(-c4n[nH]c5ccc(-c6cncc(CN7CCCC7)c6)nc45)nc23)cn1 [Compound 210, 3-(4-(4-Methyl-1H-imidazol-1-yl)-1H-imidazo[4,5-c]pyridin-2-yl)-5-(5-(pyrrolidin-1-ylmethyl)pyridin-3-yl)-1H-pyrazolo [4,3-b]pyridine] | > 10 | > 10 | – | 5.5 | 7.2 | 50 |
| CC(C)C(=O)Nc1cncc(-c2ccc3[nH]nc(-c4nc5c(-c6ccccc6F)nccc5[nH]4)c3n2)c1 [Compound 65, N-(5-(3-(4-(2-fluorophenyl)-1H-imidazo[4,5-c]pyridin-2-yl)-1H-pyrazolo [4,3-b]pyridin-5-yl)pyridin-3-yl)isobutyramide] | > 10 | > 10 | 10 | 2.7 | 8.7 | 140 |
| CN(C)c1cncc(-c2ccc3[nH]nc(-c4nc5c(N6CCCCC6)nccc5[nH]4)c3n2)c1 [Compound 175, N,N-Dimethyl-5-(3-(4-(piperidin-1-yl)-1H-imidazo[4,5-c]pyridin-2-yl)-1H-pyrazolo [4,3-b]pyridin-5-yl)pyridin-3-amine] | 3.89 | 1.99 | – | – | – | 48 |
| CCCC(=O)Nc1cncc(-c2ccc3[nH]nc(-c4nc5c(-c6ccncc6)nccc5[nH]4)c3n2)c1 [Compound 129, N-(5-(3-(4-(Pyridin-4-yl)-1H-imidazo[4,5-c]pyridin-2-yl)-1H-pyrazolo[4,3-b]pyridin-5-yl)pyridin-3-yl)butyramide] | > 10 | > 10 | 300 | 2.2 | 0 | 70 |
| Cc1cn(-c2nccc3[nH]c(-c4n[nH]c5ccc(-c6cncc(NC(=O)C(C)(C)C)c6)nc45)nc23)cn1 [Compound 204, N-(5-(3-(4-(4-Methyl-1H-imidazol-1-yl)-1H-imidazo[4,5-c]pyridin-2-yl)-1H-pyrazolo[4,3-b]pyridin-5-yl)pyridin-3-yl)pivalamide] | > 10 | > 10 | 30 | 21 | 0 | 70 |

These reach a lower EC50 [1]. Values come first.

| EC50 [1] [µM] | EC50 [2] [µM] | EC50 [3] [nM] | SMILES | inhibition at 10 µM [1] [%] | inhibition at 10 µM [2] [%] | Emax [3] [%] |
| --- | --- | --- | --- | --- | --- | --- |
| 1.06 | 3.34 | 10 | CC(C)(C)C(=O)Nc1cncc(-c2ccc3[nH]nc(-c4nc5c(-c6ccc(Cl)s6)nccc5[nH]4)c3n2)c1 [Compound 1043, N-(5-(3-(4-(5-Chlorothiophen-2-yl)-1H-imidazo[4,5-c]pyridin-2-yl)-1H-pyrazolo[4,3-b]pyridin-5-yl)pyridin-3-yl)pivalamide] | – | – | 67 |
| 1.58 | 0.926 | 10 | Clc1ccc(-c2nccc3[nH]c(-c4n[nH]c5ccc(-c6cncc(CN7CCCC7)c6)nc45)nc23)s1 [Compound 1049, 3-(4-(5-Chlorothiophen-2-yl)-1H-imidazo[4,5-c]pyridin-2-yl)-5-(5-(pyrrolidin-1-ylmethyl)pyridin-3-yl)-1H-pyrazolo [4,3-b]pyridine] | – | – | 59 |
| 1.22 | > 10 | 900 | Fc1ccc(-c2nccc3[nH]c(-c4n[nH]c5ccc(-c6cncnc6)nc45)nc23)cc1 [Compound 55, 3-(4-(4-Fluorophenyl)-1H-imidazo[4,5-c]pyridin-2-yl)-5-(pyrimidin-5-yl)-1H-pyrazolo[4,3-b]pyridine] | – | 15.1 | 139 |
| 0.994 | 1.98 | 10 | CC(C)Nc1cncc(-c2ccc3[nH]nc(-c4nc5c(-c6cccnc6)nccc5[nH]4)c3n2)c1 [Compound 96, N-Isopropyl-5-(3-(4-(pyridin-3-yl)-1H-imidazo[4,5-c]pyridin-2-yl)-1H-pyrazolo[4,3-b]pyridin-5-yl)pyridin-3-amine] | – | – | 54 |
| 0.897 | 2.15 | 30 | O=C(Nc1cncc(-c2ccc3[nH]nc(-c4nc5c(-c6ccc(Cl)s6)nccc5[nH]4)c3n2)c1)C1CCC1 [Compound 1056, N-(5-(3-(4-(5-Chlorothiophen-2-yl)-1H-imidazo[4,5-c]pyridin-2-yl)-1H-pyrazolo[4,3-b]pyridin-5-yl)pyridin-3-yl)cyclobutanecarboxamide] | – | – | 60 |
| 3.35 | 3.59 | 10 | CC(C)(C)C(=O)Nc1cncc(-c2ccc3[nH]nc(-c4nc5c(-c6ccc(F)cc6)nccc5[nH]4)c3n2)c1 [Compound 36, N-(5-(3-(4-(4-Fluorophenyl)-1H-imidazo[4,5-c]pyridin-2-yl)-1H-pyrazolo [4,3-b]pyridin-5-yl)pyridin-3-yl)pivalamide] | – | – | 56 |
| 3.47 | 0.684 | – | CCNCc1cncc(-c2ccc3[nH]nc(-c4nc5c(-c6ccoc6)nccc5[nH]4)c3n2)c1 [Compound 314, N-((5-(3-(4-(Furan-3-yl)-1H-imidazo[4,5-c]pyridin-2-yl)-1H-pyrazolo[4,3-b]pyridin-5-yl)pyridin-3-yl)methyl)ethanamine] | – | – | 33 |
| 0.235 | > 10 | – | Cc1ncc(-c2ccc3[nH]nc(-c4nc5c(-c6cccc(F)c6)nccc5[nH]4)c3n2)s1 [Compound 1126, 5-(3-(4-(3-Fluorophenyl)-1H-imidazo[4,5-c]pyridin-2-yl)-1H-pyrazolo[4,3-b]pyridin-5-yl)-2-methylthiazole] | – | 26.6 | 43 |
